Test [1] has as its target T1, Glycogen phosphorylase, muscle form (Oryctolagus cuniculus) (UniProt P00489).
T1 sequence (whole entry): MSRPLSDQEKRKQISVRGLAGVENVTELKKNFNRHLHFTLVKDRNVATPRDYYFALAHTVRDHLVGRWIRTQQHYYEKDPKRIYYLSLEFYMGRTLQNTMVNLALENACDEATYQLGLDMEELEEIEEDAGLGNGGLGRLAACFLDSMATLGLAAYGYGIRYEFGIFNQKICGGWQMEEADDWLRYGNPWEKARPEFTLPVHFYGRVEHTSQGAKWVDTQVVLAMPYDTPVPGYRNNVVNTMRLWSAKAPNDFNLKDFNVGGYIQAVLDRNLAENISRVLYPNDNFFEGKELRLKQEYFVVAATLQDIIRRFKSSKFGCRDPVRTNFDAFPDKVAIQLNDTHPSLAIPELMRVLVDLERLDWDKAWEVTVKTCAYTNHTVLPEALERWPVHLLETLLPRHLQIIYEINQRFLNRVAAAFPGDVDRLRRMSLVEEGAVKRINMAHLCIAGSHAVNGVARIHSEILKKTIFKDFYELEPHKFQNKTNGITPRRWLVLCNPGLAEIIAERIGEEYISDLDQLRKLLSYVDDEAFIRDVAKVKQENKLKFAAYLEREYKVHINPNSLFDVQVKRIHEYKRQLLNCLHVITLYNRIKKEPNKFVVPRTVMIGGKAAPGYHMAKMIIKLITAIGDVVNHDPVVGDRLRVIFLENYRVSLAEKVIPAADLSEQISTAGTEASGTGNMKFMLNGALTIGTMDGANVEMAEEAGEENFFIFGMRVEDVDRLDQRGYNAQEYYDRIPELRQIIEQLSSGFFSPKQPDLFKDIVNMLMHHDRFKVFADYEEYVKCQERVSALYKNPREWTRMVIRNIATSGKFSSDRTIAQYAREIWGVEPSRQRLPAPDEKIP
Put plainly: Inhibition of rabbit muscle glycogen phosphorylase b at 625 uM.

Test [2] has as its target T2, Glycogen phosphorylase, muscle form (Oryctolagus cuniculus, UniProt P00489).
T2 sequence (P00489 whole entry): T1 sequence (whole entry)

Results on 33 compounds are retold here after ChEMBL document CHEMBL1152938, “Synthesis and structure-activity relationships of C-glycosylated oxadiazoles as inhibitors of glycogen phosphorylase” (Bioorg Med Chem, 2009).

Active and inactive are the calls of the source. The rule behind the calls is not given here. Some results are limits rather than exact numbers.

Regarding `O=[N+]([O-])c1ccc(-c2nc([C@@H]3O[C@H](CO)[C@@H](O)[C@H](O)[C@H]3O)no2)cc1`, in test [1], the inhibition entry was “inactive”. `OC[C@H]1O[C@@H](c2nc(-c3ccc(O)cc3)no2)[C@H](O)[C@@H](O)[C@@H]1O` registered a Ki in test [2] of 19.4 µM. In test [2], `OC[C@H]1O[C@@H](c2nc(-c3ccc4c(c3)OCO4)no2)[C@H](O)[C@@H](O)[C@@H]1O` gave an IC50 of more than 625 µM.

For the compound `OC[C@H]1O[C@@H](c2noc(-c3ccccc3)n2)[C@H](O)[C@@H](O)[C@@H]1O`, the inhibition in test [1] turned out to be 10%.

In turn, `OC[C@H]1O[C@@H](c2nnc(-c3cccc4ccccc34)o2)[C@H](O)[C@@H](O)[C@@H]1O` had an inhibition in test [1] of 10%.

As to `OC[C@H]1O[C@@H](c2nnc(-c3ccc(O)cc3)o2)[C@H](O)[C@@H](O)[C@@H]1O`, the inhibition entry in test [1] is “inactive”. In test [2], `O=C(NC(=O)c1ccc([N+](=O)[O-])cc1)N[C@@H]1O[C@H](CO)[C@@H](O)[C@H](O)[C@H]1O` displayed a Ki of 3.3 µM. As for `Nc1ccc(-c2nnc([C@@H]3O[C@H](CO)[C@@H](O)[C@H](O)[C@H]3O)o2)cc1`, in test [1], the inhibition entry was “inactive”. In turn, `Cc1ccc(-c2noc([C@@H]3O[C@H](CO)[C@@H](O)[C@H](O)[C@H]3O)n2)cc1` showed a Ki in test [2] of 8.8 µM. As to `OC[C@H]1O[C@@H](c2nc(-c3ccc(OCc4ccccc4)cc3)no2)[C@H](O)[C@@H](O)[C@@H]1O`, the inhibition entry in test [1] was “inactive”.

On to `OC[C@H]1O[C@@H](c2nnc(-c3ccc4ccccc4c3)o2)[C@H](O)[C@@H](O)[C@@H]1O`, for which the inhibition in test [1] is 10%. As for `Nc1ccc(C(=O)NC(=O)N[C@@H]2O[C@H](CO)[C@@H](O)[C@H](O)[C@H]2O)cc1`, in test [2], the Ki was determined as 6 µM. `Cc1nc([C@@H]2O[C@H](CO)[C@@H](O)[C@H](O)[C@H]2O)no1`: in test [1], the inhibition result was “inactive”.

For `OC[C@H]1O[C@@H](c2nc(-c3ccccc3)no2)[C@H](O)[C@@H](O)[C@@H]1O`, affinity in test [2] was put at a Ki of 64 µM. `OC[C@H]1O[C@@H](c2nc(-c3ccc4ccccc4c3)no2)[C@H](O)[C@@H](O)[C@@H]1O` returned a Ki in test [2] of 2.4 µM. This Ki lies about 27-fold lower than the previous one. As to `OC[C@H]1O[C@@H](c2noc(-c3ccc4ccccc4c3)n2)[C@H](O)[C@@H](O)[C@@H]1O`, the affinity in test [2], expressed as Ki, was 38 µM. In test [1], `Nc1ccc(-c2noc([C@@H]3O[C@H](CO)[C@@H](O)[C@H](O)[C@H]3O)n2)cc1` yielded an inhibition of 20%. The compound `OC[C@H]1O[C@@H](c2nc3ccccc3s2)[C@H](O)[C@@H](O)[C@@H]1O` displayed a Ki in test [2] of 76 µM. With `OC[C@H]1O[C@@H](c2noc(-c3cccc4ccccc34)n2)[C@H](O)[C@@H](O)[C@@H]1O`, in test [1], the inhibition result is “inactive”.

Turning to `O=[N+]([O-])c1ccc(-c2noc([C@@H]3O[C@H](CO)[C@@H](O)[C@H](O)[C@H]3O)n2)cc1`, in test [2], half-maximal inhibition (IC50) required 650 µM. In test [2], `Cc1nnc(C2O[C@H](CO)[C@@H](O)[C@H](O)[C@H]2O)o1` (single isomer, unassigned) displayed a Ki of 145 µM. With `O=[N+]([O-])c1ccc(-c2nnc([C@@H]3O[C@H](CO)[C@@H](O)[C@H](O)[C@H]3O)o2)cc1`, the inhibition entry in test [1] was “inactive”. The same measure, in the same setting: the entry for `COc1ccc(-c2nnc([C@@H]3O[C@H](CO)[C@@H](O)[C@H](O)[C@H]3O)o2)cc1` is “inactive”. As for `O=C(NC(=O)c1ccc(O)cc1)N[C@@H]1O[C@H](CO)[C@@H](O)[C@H](O)[C@H]1O`, in test [2], the Ki turned out to be 6.3 µM. With `Cc1ccc(C(=O)N[C@@H]2O[C@H](CO)[C@@H](O)[C@H](O)[C@H]2O)cc1`, the IC50 in test [2] stood at 4500 µM. `COc1ccc(-c2noc([C@@H]3O[C@H](CO)[C@@H](O)[C@H](O)[C@H]3O)n2)cc1` returned a Ki in test [2] of 20.4 µM. In test [2], `COc1ccc(-c2nc([C@@H]3O[C@H](CO)[C@@H](O)[C@H](O)[C@H]3O)no2)cc1` came in with an IC50 of 550 µM. As to `Cc1ccc(-c2nnc([C@@H]3O[C@H](CO)[C@@H](O)[C@H](O)[C@H]3O)o2)cc1`, in test [1], the inhibition entry is “inactive”. The compound `OC[C@H]1O[C@@H](c2nc(-c3cccc4ccccc34)no2)[C@H](O)[C@@H](O)[C@@H]1O` gave a Ki in test [2] of 19 µM. `Cc1ccc(-c2nc([C@@H]3O[C@H](CO)[C@@H](O)[C@H](O)[C@H]3O)no2)cc1`: in test [2], the IC50 came to 350 µM. The compound `O=C(NC(=O)c1cccc2ccccc12)N[C@@H]1O[C@H](CO)[C@@H](O)[C@H](O)[C@H]1O` displayed an inhibition constant (Ki) in test [2] of 15 µM. Still for that read-out and setting: the figure for `Cc1ccc(C(=O)NC(=O)N[C@@H]2O[C@H](CO)[C@@H](O)[C@H](O)[C@H]2O)cc1` is 2.3 µM. Take `OC[C@H]1O[C@@H](c2nnc(-c3ccccc3)o2)[C@H](O)[C@@H](O)[C@@H]1O`: the inhibition in test [1] stood at 10%.
